Results taken from ChEMBL document CHEMBL3244149, “New synthetic routes to tilorone dihydrochloride and some of its analogues” (J Med Chem, 1978).
Active and inactive are the calls of the source. The calls are words filed in the database; no cut-off is given here.

How the values were obtained:
[1] = system: Mus musculus; experiment: Induction of interferon production in CD-1 mouse serum at 100 mg/kg, ip after 18 hrs; format: functional, organism-based; parameters: dose 100 mg/kg
[2] = system: Mus musculus; experiment: Toxicity in CD-1 mouse at 300 mg/kg, ip; format: organism-based; parameters: dose 300 mg/kg, route intraperitoneal; settings: in vivo
[3] = system: Mus musculus; experiment: Toxicity in CD-1 mouse at 100 mg/kg, ip; format: organism-based; parameters: dose 100 mg/kg, route intraperitoneal; settings: in vivo
[4] = system: Mus musculus; experiment: Induction of interferon production in CD-1 mouse serum at 10 to 30 mg/kg, ip after 18 hrs; format: functional, organism-based

Compound | Activity [1] | Activity [2] | Activity [3] | Activity [4]
CCN(CC)CCOc1ccc2c(c1)C(=O)c1cc(OCCN(CC)CC)ccc1-2 | Active |  |  | 
CCN(CC)CCOc1ccc2c(c1)S(=O)(=O)c1cc(OCCN(CC)CC)ccc1-2 | inactive | Toxic | Non-toxic | 
CCN(CC)CCOc1cccc(C(=O)c2cccc(OCCN(CC)CC)c2)c1 |  | Toxic | Toxic | inactive
